From patent publication US20030125234A1, “Alteration of protein stability” (priority 2001, published 2003)

Legend:
Type in all cases: biochemical
Bovine insulin = biological target: T1, Bovine insulin (Bos taurus, UniProt P01317); experiment: Insulin aggregation (turbidity at 360 nm) induced by DTT; conditions: Insulin 0.25 mg/mL, 25° C., DTT; compound 100×; standard deviation in parenthesis
T1 construct: purchased Sigma, St. Louis, Mo., USA
Protocol: (§1) Bovine insulin [Sigma, St. Louis, Mo., USA] was dissolved in phosphate saline (PBS) (50 mM sodium biphosphate, 100 mM sodium chloride), pH 7.0, bovine alpha-lactalbumin [Sigma] in 50 mM sodium phosphate, 100 mM sodium chloride and 2 mM EDTA, pH 6.2, chicken egg white lysozyme [Sigma] in 100 mM Tris, 1 mM EDTA, pH 8.2, human acidic fibroblast growth factor (FGF-1) in 6.2 mM sodium biphosphate, 120 mM sodium chloride, pH 7.2, porcine somatotropin (pST) [provided by Pfizer, Inc., Groton, Conn., USA] in 10 mM phosphate, pH 6. 1, human apolactoferrin (HLF) [Sigma] in 20 mM HEPES, 154 mM NaCl, pH 7.4, porcine heart citrate synthase (CS) in 40 mM HEPES, 50 mM KCl, 10 mM (NH4)2SO4 mM potassium acetate, pH 7.8, and yeast alcohol dehydrogenase (ADH) [Sigma] in pH 7.0 PBS. Selection of buffer solutions was based on an extensive series of preliminary studies to obtain appropriate insolubilization kinetics as described below.
(§2) Copper O-phenanthroline (1,10-phenanthroline) was prepared by mixing copper sulfate hexahydrate [Fisher] and o-phenanthroline [Sigma] in a 1:2 ratio. 1 M Dithiothreitol (DTT) was prepared at pH 7.0 PBS. Polyethylene glycol (M.W. 8000, Union Carbide, Danbury, Conn., USA) (PEG) was prepared at 20 mg/mL in 10 mM phosphate, pH 6.1.
(§3) The following compounds were obtained from Sigma and used without further purification: oxalic acid, sodium malonate, succinic acid, glutaric acid, adipic acid, pimelic acid, suberic acid, azelaic acid, guanidine hydrochloride, ammonium formate, beta-alanine, 4-aminobutyric acid, 5-aminovaleric acid, 6-aminocaproic acid, 7-aminoheptanoic acid, hydrazine, ethylenediamine, 1,3-diaminopropane, 1,4-diaminobutane, 1,5-diaminopentane, 1,6-diaminohexane, 1,7-diaminoheptane, Glu-Glu, Glu-Lys, Lys-Lys, diglycine, triglycine, tetraglycine, pentaglycine, and hexaglycine. […] Triglycine and tetraglycine were dissolved in pH 8.6 PBS, while pentaglycine and hexaglycine were dissolved in pH 10.6 PBS.
(§4) Each was either dissolved in pH 7.0 PBS, or pH 6.1 10 mM phosphate, and adjusted to the same pH.
(§5) Protein aggregation was monitored for 1 hour at 360 nm using an HP8453 UV-visible spectrophotometer system [Hewlett Packard, Germany]. […] Insulin (0.25 mg/mL (4.39E-5 M)) aggregation was monitored at 25° C. after addition of potential inhibitors and 20 μL of 1 M DTT (1.27E-4 M). Alpha-lactabumin (0.4 mg/mL (2.82E-5 M)) aggregation was monitored at 37° C. in the presence of 20 μL of 1 M DTT (1.27E-4 M). Lysozyme (0.4 mg/mL (2.86E-5 M)) aggregation was monitored at 25° C. in the presence of 20 μL of 1 M DTT (1.27E-4 M). FGF-1 (50 μg/mL (3.12E-6 M)) aggregation was monitored at 50° C. Porcine somatotropin (1.27 mg/mL (5.76E-5 M)) aggregation was monitored at 60° C. in the presence of PEG 8000 (20 mg/mL) which was included to enhance the protein association process through a simple exclusion volume effect. HLF (0.4 mg/mL (5.23E-6 M)) aggregation was monitored at 43° C. in the presence of 1.27E-4 M DTT. Citrate synthase (96 μg/mL (9.80E-7 M)) aggregation was monitored at45° C. ADH (1 mg/mL (7.14E-6 M)) was monitored at 37° C. following the addition of 7.76E-5 M Cu(OP)2. Aggregation was compared to protein in the absence of the particular dipolar compound. After stirring, experiments were initiated by the addition of proteins followed by stressing reagents to 1 cm pathlength cuvettes employing a seven-position thermostatted sample holder that was cycled at 30-second intervals. Alternatively, a microtiter plate reader was employed under the same conditions in a 96 well format.
(§6) All optical density (OD)360nm versus time results were exported into Excel [Microsoft] for data analysis.

[1] = biological target: T2, porcine heart citrate synthase (CS) (Sus scrofa, UniProt P00889); experiment: Citrate synthase thermal aggregation (turbidity at 360 nm); conditions: CS 96 μg/mL, 45° C.; compound 1,000X; standard deviation in parenthesis
T2 construct: porcine heart citrate synthase (CS); from tissue; host or cells: porcine heart
T2 sequence (P00889 28-464): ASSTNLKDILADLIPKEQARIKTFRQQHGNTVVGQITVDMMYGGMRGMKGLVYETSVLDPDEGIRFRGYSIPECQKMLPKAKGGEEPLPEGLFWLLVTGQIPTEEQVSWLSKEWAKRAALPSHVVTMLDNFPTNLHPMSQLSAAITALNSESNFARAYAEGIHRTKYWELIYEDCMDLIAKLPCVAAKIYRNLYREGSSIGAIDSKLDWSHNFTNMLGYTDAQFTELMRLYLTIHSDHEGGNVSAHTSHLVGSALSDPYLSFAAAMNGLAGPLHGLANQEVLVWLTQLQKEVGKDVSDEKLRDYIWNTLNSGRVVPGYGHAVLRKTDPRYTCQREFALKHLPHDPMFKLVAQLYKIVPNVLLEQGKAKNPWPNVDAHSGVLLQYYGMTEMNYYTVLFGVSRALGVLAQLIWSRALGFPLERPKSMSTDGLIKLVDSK
Protocol: as §1, §3, §4, §5
(§7) All optical density (OD)360nm versus time results were exported into Excel [Microsoft] for data analysis. […] The maximum rate of change in OD versus time plots (r) was used to determine the rate of the reaction from the slope at this point.

[2] = biological target: T3, yeast alcohol dehydrogenase (ADH) (Saccharomyces cerevisiae, UniProt P00330); experiment: ADH oxidation-induced aggregation (turbidity at 360 nm), Cu(OP)2; conditions: ADH 1 mg/mL, 37° C., Cu(OP)2
T3 construct: purchased Sigma
T3 sequence (P00330 2-348 limits assumed): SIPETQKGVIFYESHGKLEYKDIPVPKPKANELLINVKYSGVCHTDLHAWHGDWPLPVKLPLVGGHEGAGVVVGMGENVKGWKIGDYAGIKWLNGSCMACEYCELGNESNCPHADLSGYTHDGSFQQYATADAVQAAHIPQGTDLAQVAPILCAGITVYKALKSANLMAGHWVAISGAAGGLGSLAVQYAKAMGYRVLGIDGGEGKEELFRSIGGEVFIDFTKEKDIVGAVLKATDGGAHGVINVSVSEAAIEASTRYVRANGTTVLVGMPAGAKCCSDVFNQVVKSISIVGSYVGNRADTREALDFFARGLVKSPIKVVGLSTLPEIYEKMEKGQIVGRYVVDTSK
Protocol: as §1, §2, §3, §4, §5, §6

[3] = biological target: T4, human apolactoferrin (HLF) (Homo sapiens, UniProt P02788); experiment: HLF aggregation (turbidity at 360 nm) induced by DTT; conditions: HLF 0.4 mg/mL, 43° C., DTT; first HLF column, head 10,000×; standard deviation in parenthesis
T4 construct: purchased Sigma
Protocol: as §1, §2, §3, §4, §5, §6

[4] = biological target: T5, chicken egg white lysozyme (Gallus gallus, UniProt P00698); experiment: Lysozyme aggregation (turbidity at 360 nm) induced by DTT; conditions: Lysozyme 0.4 mg/mL, 25° C., DTT; compound 1,000×; standard deviation in parenthesis
T5 construct: chicken egg white lysozyme [Sigma]; purchased Sigma; host or cells: egg white
Protocol: as §1, §2, §3, §4, §5, §6

[5] = biological target: human acidic fibroblast growth factor (FGF-1) (Homo sapiens, UniProt P05230); experiment: FGF-1 thermal aggregation (turbidity at 360 nm); conditions: FGF-1 50 μg/mL, 50° C.; compound 1,000×; standard deviation in parenthesis
Protocol: as §1, §3, §4, §5, §7

[6] = biological target: T6, porcine somatotropin (pST) (Sus scrofa, UniProt P01248); experiment: Porcine somatotropin aggregation (turbidity at 360 nm) with PEG 8000; conditions: pST 1.27 mg/mL, 60° C., compound 100X, standard deviation in parenthesis
T6 construct: purchased Pfizer, Inc., Groton, Conn., USA (provided, not bought)
T6 sequence (P01248 27-216): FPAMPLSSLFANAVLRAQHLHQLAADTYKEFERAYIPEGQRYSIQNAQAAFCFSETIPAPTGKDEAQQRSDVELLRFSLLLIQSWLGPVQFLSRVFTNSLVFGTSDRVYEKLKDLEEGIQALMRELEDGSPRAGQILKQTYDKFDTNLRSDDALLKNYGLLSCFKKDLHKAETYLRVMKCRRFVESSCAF
Protocol: as §1, §2, §3, §4, §5, §6

bovine alpha-lactalbumin = biological target: T7, bovine alpha-lactalbumin (Bos taurus, UniProt P00711); experiment: Alpha-lactalbumin aggregation (turbidity at 360 nm) induced by DTT; conditions: for inhibition index: α Lactalbumin 0.4 mg/mL, 37° C., DTT, compound 1,000×, standard deviation in parenthesis
T7 construct: purchased Sigma
T7 sequence (P00711 20-142): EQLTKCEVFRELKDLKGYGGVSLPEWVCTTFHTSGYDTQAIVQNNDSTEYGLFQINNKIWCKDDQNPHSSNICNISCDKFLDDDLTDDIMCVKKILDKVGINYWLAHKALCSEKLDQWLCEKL
Protocol: as §1, §2, §3, §4, §5, §6

[7] = compound 1,000X, standard deviation in parenthesis

T1 sequence (P01317 25-54 limits assumed): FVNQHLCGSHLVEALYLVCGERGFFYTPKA
T1 sequence (P01317 85-105 limits assumed): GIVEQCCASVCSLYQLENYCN
T4 sequence (P02788 20-710): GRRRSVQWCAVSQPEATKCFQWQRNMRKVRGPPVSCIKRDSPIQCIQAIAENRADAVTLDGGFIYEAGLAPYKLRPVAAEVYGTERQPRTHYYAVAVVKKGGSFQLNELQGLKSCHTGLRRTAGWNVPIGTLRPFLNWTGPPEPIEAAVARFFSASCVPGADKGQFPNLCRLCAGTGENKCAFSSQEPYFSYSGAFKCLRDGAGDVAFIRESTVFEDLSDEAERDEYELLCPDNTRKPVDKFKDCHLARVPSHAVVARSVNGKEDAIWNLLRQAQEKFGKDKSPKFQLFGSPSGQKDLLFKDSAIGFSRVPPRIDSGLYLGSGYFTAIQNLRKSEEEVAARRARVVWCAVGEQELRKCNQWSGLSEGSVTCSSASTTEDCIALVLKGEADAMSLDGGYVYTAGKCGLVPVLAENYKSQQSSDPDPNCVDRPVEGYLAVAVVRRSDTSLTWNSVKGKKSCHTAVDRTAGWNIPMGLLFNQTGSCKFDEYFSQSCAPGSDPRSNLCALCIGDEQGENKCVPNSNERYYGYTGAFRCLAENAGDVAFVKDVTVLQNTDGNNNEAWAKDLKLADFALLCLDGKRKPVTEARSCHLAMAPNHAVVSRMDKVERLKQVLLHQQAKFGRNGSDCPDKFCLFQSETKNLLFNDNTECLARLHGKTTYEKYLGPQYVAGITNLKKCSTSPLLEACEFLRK
Chain of human acidic fibroblast growth factor (FGF-1) (P05230 whole entry): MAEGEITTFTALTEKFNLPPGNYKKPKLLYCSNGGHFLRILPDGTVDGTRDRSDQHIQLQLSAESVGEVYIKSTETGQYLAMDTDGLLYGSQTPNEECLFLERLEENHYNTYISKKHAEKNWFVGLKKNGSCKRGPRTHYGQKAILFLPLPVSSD
T5 sequence (P00698 19-147): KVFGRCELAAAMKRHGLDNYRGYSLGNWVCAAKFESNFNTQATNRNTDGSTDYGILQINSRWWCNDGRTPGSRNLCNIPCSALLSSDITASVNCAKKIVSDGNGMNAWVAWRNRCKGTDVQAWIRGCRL

Substance | inhibition index (Bovine insulin) | inhibition index [1] | inhibition index [2, 7] | inhibition index [3] | inhibition index [4] | inhibition index [5] | inhibition index [6] | inhibition index (bovine alpha-lactalbumin) | inhibition of α-lactalbumin aggregation, in words (bovine alpha-lactalbumin) | inhibition index ([2]; compound 10,000X molar excess, Infinite = complete inhibition of aggregation over one hour)
CH3—NH2-(Glu)^−-(Gly)n-(Glu)^−-COO^− [CH3—NH2—(E)^−—(G)1—(E)^−—COO^−] | 0.5 (0.2) | 0.8 (0.1) | 1.6 (0.1) | 1.6 (0.1) | 0.9 (0.1) | 1.9 (0.1) | 1.0 (0.1) | 0.2 (0.1) |  | 
CH3—NH2-(Glu)^−-(Gly)n-(Glu)^−-COO^− [CH3—NH2—(E)^−—(G)3—(E)^−—COO^−] | 1.3 (0.4) | 1.0 (0.2) | 1.3 (0.1) | 1.5 (0.3) | 0.9 (0.2) | 2.0 (0.3) | 1.2 (0.2) | 0.5 (0.3) |  | 
KGGGGGE [^+NH3-(Lys)^+-(Gly)n-(Glu)^−-COO^−, n = 5] | 1.3 (0.3) | 2.0 (0.2) | 1.4 (0.2) | 0.8 (0.1) | 1.5 (0.4) | 1.4 (0.3) | 0.5 (0.1) | 1.8 (0.2) |  | 
^+NH3-(Lys)^+-(Gly)n-(Glu)^−-COO^− [KGE] | 0.6 (0.3) | 1.2 (0.2) | 1.3 (0.1) | 0.9 (0.1) | 2.8 (0.8) | 1.7 (0.4) | 0.7 (0.0) | 0.3 (0.2) |  | 
^+NH3-(Lys)^+-(Gly)n-(Glu)^−-COO^− [KGGE] | 1.0 (0.3) | 1.4 (0.4) | 0.8 (0.1) | 0.7 (0.1) | 2.6 (0.4) | 1.2 (0.2) | 0.6 (0.1) | 0.5 (0.2) |  | 
^+NH3-(Lys)^+-(Gly)n-(Glu)^−-COO^− [KGGGE] | 0.8 (0.1) | 1.5 (0.1) | 1.2 (0.1) | 0.8 (0.1) | 3.4 (0.1) | 1.9 (0.2) | 0.6 (0.1) | 0.6 (0.1) |  | 
^+NH3-(Lys)^+-(Gly)n-(Glu)^−-COO^− [KGGGGE] | 1.0 (0.1) | 1.8 (0.2) | 1.4 (0.1) | 0.8 (0.1) | 1.9 (0.5) | 1.9 (0.4) | 0.6 (0.1) | 0.5 (0.1) |  | 
^+NH3-(Lys)^+-(Gly)n-(Lys)^+-CONH2 [^+NH3—(K)^+—(G)2—(K)^+—CONH2] | 1.8 (0.1) | 0.7 (0.2) | 0.8 (0.1) | 1.3 (0.1) | 0.4 (0.1) | 1.8 (0.3) | 1.2 (0.2) | 3.3 (0.9) |  | 
^+NH3-(Lys)^+-(Gly)n-(Lys)^+-CONH2 [^+NH3—(K)^+—(G)4—(K)^+—CONH2] | 1.6 (0.3) | 0.8 (0.2) | 1.5 (0.3) | 1.9 (0.2) | 1.4 (0.5) | 2.0 (1.0) | 0.9 (0.0) | 1.4 (0.3) |  | 
^+NH3-(Lys)^+-(Gly)n-(Lys)^+-CONH2 [^+NH3—(K)^+—(G)5—(K)^+—CONH2] | 1.7 (1.0) | 0.8 (0.1) | 1.5 (0.2) | 1.5 (0.3) | 0.8 (0.4) | 3.3 (0.8) |  | 2.6 (1.1) | Potent inhibitors | 
hexaglycine | 1.5 (0.7) | 0.5 (0.1) | 1.7 (0.5) | 1.7 (1.5) | 0.0 (0.0) |  | 0.7 (0.1) | 4.2 (1.1) | Potent inhibitors | 20.3
